Starred links: 1 amine or outer side, 2 acyl side, 3 side chain; linkers in the order of their positions; H or OH if unused. Non-standard residues stand in square brackets, D forms with d. Residues, ends and D or L forms follow the SMILES beside them. *: point of attachment. Dolaproine = CO[C@@H]([C@@H]1CCCN1)[C@@H](C)C(=O)O; Dil = CC[C@H](C)[C@H](NC)[C@@H](CC(=O)O)OC; PABC = O=C(OCc1ccc(N[*:1])cc1)[*:2]; X1 = O=C(CCCC(=O)*)ON1C(=O)CCC1=O; X2 = C[C@@H](N*)[C@@H](O)c1ccccc1; Cit = NC(=O)NCCC[C@H](N)C(=O)O; NMeV = CN[C@H](C(=O)O)C(C)C
How the values were obtained:
Format in all cases: in vivo, Mus musculus
CTG-1502 = assay: Champions TumorGraft NSCLC PDX efficacy, model CTG-1502
Protocol: (§1) Mice were implanted subcutaneously into the left flank with tumor fragments from one of the various models. After tumors grew to an average of 150-300 mm^3, mice were treated by IV administration Q7Dx4 (n=2) with vehicle or 3 mg/kg of BT5528. Effects on tumor growth were evaluated by measuring percent tumor growth inhibition (% TGI), and the number of complete responders (CR), partial responders (PR), and tumor-free survivors (TFS). Tolerability was assessed by body weight loss, lethality, and clinical signs of adverse treatment-related side effects. Tumor volumes and body weights were measured twice a week.
(§2) Dosing solutions of BT5528 […] were pre-formulated. These dosing solutions were stored at −80° C. in the dark. On each day of dosing, a frozen aliquot of each test agent was thawed, stored at 2-8° C. and used for dosing.
(§3) The animals used in this study are described below: • Species: Mus musculus • Strain: Athymic Nude-Foxn1^nu (immune-compromised) • Source: Envigo (Indianapolis, Ind., USA) • Number of animals per group: 2 • Age and sex: At least 6-8 weeks of age at start of dosing, female • Weight: At least 18 grams at start of dosing • Acclimation period: 3 days
(§4) Stock mice were implanted with tumor cells from Champions TumorGraft® models CTG-0160, CTG-0170, CTG-0178, CTG-0192, CTG-0363, CTG-0808, CTG-0838, CTG-0848, CTG-1212, CTG-1502, CTG-1535, CTG-2011, CTG-2393, CTG-2539 or CTG-2540. After the tumors reached 1000-1500 mm^3, they were harvested and the tumor fragments (approximately 5×5×5 mm^3) were implanted SC in the left flank of the female study mice. Each animal was implanted with a specific passage lot and documented. Tumor growth was monitored twice a week using digital calipers and the tumor volume (TV) was calculated using the formula (0.52×[length×width^2]). When the TV reached an average volume of 150-300 mm^3, animals were matched by tumor size and assigned into Vehicle Control and treatment groups (n=2/group) and dosing was initiated on Day 0. After the initiation of dosing on Day 0, animals were weighed twice per week using a digital scale and TV was measured twice per week and also on the final day of study. The study was completed when the mean tumor volume of Vehicle Control reached 1500 mm^3 or up to Day 60, whichever occurred first.
(§5) Beginning on Day 0, animals were observed daily and weighed twice weekly using a digital scale; data including individual and mean gram weights, mean percent weight change versus Day 0 (% vD0) were recorded for each group and % vD0 plotted at study completion. […] Treatment resulting in a mean % vD0>20% and/or >10% mortality was considered above the maximum tolerated dose. Maximum mean % vD0 (weight nadir) for each treatment group was reported at study completion.
(§6) Inhibition of tumor growth was determined by calculating the percent TGI (100%×[1−(final MTV−initial MTV of a treated group)/(final MTV−initial MTV of the control group)]). Treatment started on Day 0.
(§7) Additional endpoints used to evaluate efficacy were: the number of complete responders (CR), partial responders (PR), and tumor-free survivors (TFS). PRs were considered exclusive of CRs, as were TFS.
(§8) Statistical analyses of anti-tumor efficacy were performed using one-way ANOVA followed by Dunnett's multiple comparisons test (GraphPad Prism version 8.2.0). Significant p-values=<0.05.
Animals were dosed according to the schedule on Table 7-1. The Vehicle Control reached endpoint on Day 17 and the study was terminated on Day 28.

CTG-0170 = assay: Champions TumorGraft NSCLC PDX efficacy, model CTG-0170
Protocol: as §1, §2, §3, §4, §5, §6, §7, §8
Animals were dosed according to the schedule on Table 7-1. The Vehicle Control group reached endpoint of average tumor volume >1500 mm^3 on Day 14 and was removed from the study. The study was terminated on Day 28. […] Therefore, the tumor volumes on Day 11 were used for analysis of anti-tumor activity in order to include all animals.

CTG-2539 = assay: Champions TumorGraft NSCLC PDX efficacy, model CTG-2539
Protocol: as §1, with “After tumors grew to an average of 150-300 mm^3, mice were treated by IV administration Q7Dx4 (n=2) with vehicle or 3 mg/kg of BT5528.” left out
[…] These dosing solutions were stored at −80° C. in the dark. On each day of dosing, a frozen aliquot of each test agent was thawed, stored at 2-8° C. and used for dosing.
as §3, §4, §5, §6, §7, §8
Animals were dosed according to the schedule on Table 7-1. The Vehicle Control reached endpoint on Day 21 and the BT5528 group reached endpoint on Day 18. The study was terminated on Day 25.

CTG-2011 = assay: Champions TumorGraft NSCLC PDX efficacy, model CTG-2011
Protocol: as §1, §2, §3, §4, §5, §6, §7, §8
Animals were dosed according to the schedule on Table 7-1. The Vehicle Control reached endpoint on Day 18 and the study was terminated on Day 28.

CTG-0192 = assay: Champions TumorGraft NSCLC PDX efficacy, model CTG-0192
Protocol: as §1, with “After tumors grew to an average of 150-300 mm^3, mice were treated by IV administration Q7Dx4 (n=2) with vehicle or 3 mg/kg of BT5528.” left out
as §2, §3, §4, §5, §6, §7, §8
Animals were dosed according to the schedule on Table 7-1. The study was terminated on Day 34.

[1] = CTG-1502, 3 mg/kg IV Q7Dx4, Day 0-28
[2] = CTG-0170, 3 mg/kg IV Q7Dx4, Day 0-28
[3] = CTG-2539, 3 mg/kg IV Q7Dx3, Day 0-25
[4] = CTG-2011, 3 mg/kg IV Q7Dx4, Day 0-28
[5] = CTG-0192, 3 mg/kg IV Q7Dx5, Day 0-34

`CC[C@H](C)[C@@H]([C@@H](CC(=O)N1CCC[C@H]1[C@H](OC)[C@@H](C)C(=O)N[C@H](C)[C@@H](O)c1ccccc1)OC)N(C)C(=O)[C@@H](NC(=O)[C@H](C(C)C)N(C)C(=O)OCc1ccc(NC(=O)[C@H](CCCNC(N)=O)NC(=O)[C@@H](NC(=O)CCCC(=O)ON2C(=O)CCC2=O)C(C)C)cc1)C(C)C` [BT5528] (X1-V[Cit][PABC][NMeV]V[Dil][Dolaproine]-X2) was tested, and the “MTV (mean tumor volume)” value (CTG-1502; 3 mg/kg IV Q7Dx4, Day 17) was 976±229 mm^3, the TGI (CTG-1502; 3 mg/kg IV Q7Dx4, Day 17) was 48% and the “# CR (complete responders)” value (CTG-1502; [1]) was 0/0/0. For the same molecule, the “# PR (partial responders)” value (CTG-1502; [1]) was 0/0/0, the “# TFS (tumor-free survivors)” value (CTG-1502; [1]) was 0/0/0 and the “% TGI” value (CTG-1502; CTG-1502, 3 mg/kg IV Q7Dx4, Day 17) was 48%. The “Day 17 Tumor Volume Mean TV ± SEM” value (CTG-1502; CTG-1502, BT5528 3 mg/kg IV Q7Dx4, Day 17, n=2) was 976 ± 229 mm^3, the “body weight and tolerability of the other animal in the group” value (CTG-0170; 3 mg/kg IV Q7Dx4) was “no body weight loss and tolerated the BT5528 well” and the “prior body weight loss of the animal found dead on Day 14” value (CTG-0170; 3 mg/kg IV Q7Dx4) was 24.8%. For the same molecule, the “MTV (mean tumor volume)” value (CTG-0170; 3 mg/kg IV Q7Dx4, Day 11) was 268±15 mm^3, the TGI (CTG-0170; 3 mg/kg IV Q7Dx4, Day 11) was 94% and the animals found dead (CTG-0170; 3 mg/kg IV Q7Dx4, n=2, cause of death unknown) was “one animal in the BT5528 group was found dead on Day 14”. The “# CR (complete responders)” value (CTG-0170; [2]) was 0/0/0, the “# PR (partial responders)” value (CTG-0170; [2]) was 0/0/0 and the “# TFS (tumor-free survivors)” value (CTG-0170; [2]) was 0/0/0. The “% TGI” value (CTG-0170; CTG-0170, 3 mg/kg IV Q7Dx4, Day 11) was 94%, the “Day 11 Tumor Volume Mean TV ± SEM” value (CTG-0170; CTG-0170, BT5528 3 mg/kg IV Q7Dx4, Day 11, n=2) was 268 ± 15 mm^3 and the “MTV (mean tumor volume)” value (CTG-2539; 3 mg/kg IV Q7Dx3, Day 18) was 2029±594 mm^3. For the same molecule, the TGI (CTG-2539; 3 mg/kg IV Q7Dx3, Day 18) was −51%, the “# CR (complete responders)” value (CTG-2539; [3]) was 0/0/0 and the “# PR (partial responders)” value (CTG-2539; [3]) was 0/0/0. For the same molecule, the “# TFS (tumor-free survivors)” value (CTG-2539; [3]) was 0/0/0, the “% TGI” value (CTG-2539; CTG-2539, 3 mg/kg IV Q7Dx3, Day 18) was −51% and the “Day 18 Tumor Volume Mean TV ± SEM” value (CTG-2539; CTG-2539, BT5528 3 mg/kg IV Q7Dx3, Day 18, n=2) was 2029 ± 594 mm^3. For the same molecule, the “MTV (mean tumor volume)” value (CTG-2011; 3 mg/kg IV Q7Dx4, Day 18) was 826±48 mm^3, the TGI (CTG-2011; 3 mg/kg IV Q7Dx4, Day 18) was 57% and the “# CR (complete responders)” value (CTG-2011; [4]) was 0 /0/0. The “# PR (partial responders)” value (CTG-2011; [4]) was 0 /0/0, the “# TFS (tumor-free survivors)” value (CTG-2011; [4]) was 0 /0/0 and the “% TGI” value (CTG-2011; CTG-2011, 3 mg/kg IV Q7Dx4, Day 18) was 57%. For the same molecule, the “Day 18 Tumor Volume Mean TV ± SEM” value (CTG-2011; CTG-2011, BT5528 3 mg/kg IV Q7Dx4, Day 18, n=2) was 826 ± 48 mm^3, the “maximum mean body weight loss” value (CTG-0192; 3 mg/kg IV Q7Dx5, Day 7) was 2.3% and the “MTV (mean tumor volume)” value (CTG-0192; 3 mg/kg IV Q7Dx5, Day 34) was 740±386 mm^3. The TGI (CTG-0192; 3 mg/kg IV Q7Dx5, Day 34) was 36%, the “# CR (complete responders)” value (CTG-0192; [5]) was 0/0/0 and the “# PR (partial responders)” value (CTG-0192; [5]) was 0/0/0. The “# TFS (tumor-free survivors)” value (CTG-0192; [5]) was 0/0/0, the “% TGI” value (CTG-0192; CTG-0192, 3 mg/kg IV Q7Dx5, Day 34) was 36% and the “Day 34 Tumor Volume Mean TV ± SEM” value (CTG-0192; CTG-0192, BT5528 3 mg/kg IV Q7Dx5, Day 34, n=2) was 740 ± 386 mm^3.
